Results published in patent EP2229935A1, “Peptide derivatives or pharmaceutically acceptable salts thereof, method for producing the same, use of said derivatives and pharmaceutical composition” (Nebolsin, Vladimir Evgenievich, priority 1997, dated 1999).

Experiments:
mongrel female rats = experiment: Hepatoprotective activity: subchronic liver lesion (hepatitis) with CCl4; format: in vivo; conditions: rats, CCl4 hepatitis; for Cholesterol level, mg/100 ml VLDL-CS / Cholesterol level, mg/100 ml LDL-CS / Cholesterol level, mg/100 ml HDL-CS / Cholesterol level, mg/100 ml total-CS / TG level, mg/100ml / ALT, nM/dl / AST, nM/dl: blood serum; for Cholesterol level, mg/100 ml VLDL-CS: TG/5; for Cholesterol level, mg/100 ml LDL-CS: calculated by formula; for ALT, nM/dl / AST, nM/dl: oral 8 days; for Lipid composition (in percent of total lipids) FCS / Lipid composition (in percent of total lipids) Phospholipids / Lipid composition (in percent of total lipids) Triglycerides: liver
Description: Hepatoprotective properties of the compounds were studied on a model of subchronic liver lesion (hepatitis) with carbon quadrichloride.
70 mongrel female rats with initial body mass 190-200 g fed a standard vivarium ration, were used in experiment. Animals were divided into 7 groups (10 rats each): • Group 1 - control one; during the first four days of experiment animals were subcutaneously injected 0.2 ml vaseline oil; • Group 2 - during the first four days animals were subcutaneously injected 50% CCl4 solution in vaseline oil at a rate of 0.1 ml per 100 g body mass; • Group 3 - Legalon in a starch gel was administered orally for 8 days at a dose 30 mg/kg against the background of CCl4 administration; […] , resepectively, was administered in a way similar to group III; […] , resepectively, was administered in a way similar to group III.
The test compounds and Legalon were administered to animals 1 hour prior to CCl4 administration. 24 hours after the last administration of the drugs, animals were decapitated.
Activity of blood serum transaminases ALT and AST was assessed using the conventional Frenkel-Rightman method [Laboratory examination methods in the clinic. Ed. by Menshikov V.V. Moscow, Meditsina publishers (1969), 302 pp.].
The published method [Rodionova L.P. Modification of blood serum trigyceride level determination method. Laboratomoye delo (Laboratory Matter) (1980), No 5, pp. 297-299] was used to determine blood serum TG level.
Blood serum LP final product MDA was determined using the published method [Korobeinikova E.N. Modification of lipid peroxydation product determination in reaction with thiobarbituric acid. Laboratomoye delo (Laboratory Matter) (1989), No 7, pp. 8-10]. Concentration of TBA-active products was calculated using regression equation: C = 0.21 + 0.26D, [formula] where C - concentration of TBA-active products (in nM MDA per 1 ml of serum), D - index D535 -D580 (in optic density units).
Total hepatic lipids were extracted using the modified Folch method [Cates M. Technology of Lipidology. Moscow, Mir publishers (1975), pp. 74-76]. Quantative content of lipid fractions was assessed with thin layer chromatography method (TLC) using the system of solvents hexane:diethyl ether:acetic acid at ratio 80:20:2. Zones of individual lipid fractions were determined using 10% alcohol solution of phosphoromolyobdenic acid which following elution were spectrophotometrically analysed at 600 nm.
Hepatic MDA level was determined using the published method [Stalnaya I.D., Garishvili T.G. Malonic dialdehyde determination method using thiobarbituric acid. In: Modem methods in biochemistry. Moscow, Meditsina publishers (1977), pp. 66-69]. MDA quantity was calculated using molar extinction coefficient value of stained trimethynic complex formed by MDA with two TBA molecules: E = 1.56 × 10^5 (cm)^-1 × M^-1 [formula]

Human lymphocytes = experiment: Concanavalin A-induced blasttransformation of lymphocytes; format: cell-based
Description: Human lymphocytes were used for blasttransformation reaction [Kiseleva E.P., Tsveibakh A.S., Goldman E.I., Pigareva N.V. Application of a micromethod to study blasttransformation of lymphocytes in humans and animals. Immunology (1985), No 1, pp. 76-78]. 10 ml blood were collected into a sterile syringe containing heparine (to final concentration 25 U/ml) and incubated to sediment red blood cells (60-90 minutes at 37°C). Leukocytic suspension layer was selected and the number of nucleated cells was calculated. The cells obtained in such a way were incubated for 72 hours in a humid atmosphere with 5% CO2 at 37°C in the cells of plates for immune reactions in RPMI-1640 medium comprising 15% fetal calf serum, […] Neomycine (incubation mixture volume 0.15 ml). 5 x 10^5 cells were introduced into each plate cell. Incubation was carried out in the presence or absence of mitogen phytohemagglutinin (PHA) (Sigma) […] or concanavalin A (ConA) (Sigma) […] with or without addition of the test compounds at different concentrations. […] H^3 -thymidine in RPMI-1640 medium were introduced into each cell 16 hours before incubation termination. Following culturing period termination, 0.15 ml cellular suspension from each plate cell were transferred on the FN-8 paper filters. Filters were dried, washed two times with normal saline for 5 minutes then twice with TCA for 60 minutes. After drying, radioactivity of samples was calculated on a counter in the ZhS-8 scintillator. Stimulation index was calculated as ratio of sample radioactivity with mitogen to sample radioactivity without mitogen.

For γ-L-glutamylhistamine [compound XLIV], the “Cholesterol level, mg/100 ml VLDL-CS” value (mongrel female rats; 0.05 µg/kg) was 13.9 ± 1.1 p<0.01 mg/100 ml, the “Cholesterol level, mg/100 ml VLDL-CS” value (mongrel female rats; 0.5 µg/kg) was 12.4 ± 0.7 p<0.001 mg/100 ml and the “Cholesterol level, mg/100 ml LDL-CS” value (mongrel female rats; 0.05 µg/kg) was 21.9 ± 1.1 p<0.001 mg/100 ml. For the same substance, the “Cholesterol level, mg/100 ml LDL-CS” value (mongrel female rats; 0.5 µg/kg) was 17.1 ± 1.0 p<0.01 mg/100 ml, the “Cholesterol level, mg/100 ml HDL-CS” value (mongrel female rats; 0.05 µg/kg) was 49.6 ± 2.5 mg/100 ml and the “Cholesterol level, mg/100 ml total-CS” value (mongrel female rats; 0.05 µg/kg) was 85.3 ± 3.9 mg/100 ml. For the same substance, the “TG level, mg/100ml” value (mongrel female rats; 0.05 µg/kg) was 68.3 ± 5.7 p<0.001 mg/100ml, the “Cholesterol level, mg/100 ml HDL-CS” value (mongrel female rats; 0.5 µg/kg) was 57.5 ± 5.1 mg/100 ml and the “Cholesterol level, mg/100 ml total-CS” value (mongrel female rats; 0.5 µg/kg) was 87.2 ± 6.5 mg/100 ml. The “TG level, mg/100ml” value (mongrel female rats; 0.5 µg/kg) was 62.4 ± 3.9 p<0.001 mg/100ml, the “ALT, nM/dl” value (mongrel female rats; daily dose 0.05 mg/kg) was 599 ± 18 nM/dl and the “AST, nM/dl” value (mongrel female rats; daily dose 0.05 mg/kg) was 470 ± 17 nM/dl. For the same substance, the “ALT, nM/dl” value (mongrel female rats; daily dose 0.50 mg/kg) was 551 ± 28 nM/dl, the “AST, nM/dl” value (mongrel female rats; daily dose 0.50 mg/kg) was 475 ± 19 nM/dl and the “Lipid composition (in percent of total lipids) FCS” value (mongrel female rats; 0.05 µg/kg) was 18.0 ± 0.8% of total lipids. For the same substance, the “Lipid composition (in percent of total lipids) Phospholipids” value (mongrel female rats; 0.05 µg/kg) was 22.8 ± 0.9% of total lipids, the “Lipid composition (in percent of total lipids) Triglycerides” value (mongrel female rats; 0.05 µg/kg) was 39.9 ± 1.7% of total lipids and the “Lipid composition (in percent of total lipids) FCS” value (mongrel female rats; 0.5 µg/kg) was 20.6 ± 0.8 p<0.05% of total lipids. For the same substance, the “Lipid composition (in percent of total lipids) Phospholipids” value (mongrel female rats; 0.5 µg/kg) was 26.1 ± 0.6 p<0.001% of total lipids, the “Lipid composition (in percent of total lipids) Triglycerides” value (mongrel female rats; 0.5 µg/kg) was 33.9 ± 1.0 p<0.05% of total lipids and the “Hepatic MDA, nM/l” value (mongrel female rats; 0.05 mg/kg) was 4.47 ± 0.45 p<0.05 nM/l. For the same substance, the “Serum MDA, nM/l” value (mongrel female rats; 0.05 mg/kg) was 5.82 ± 0.38 p<0.05 nM/l, the “Hepatic MDA, nM/l” value (mongrel female rats; 0.50 mg/kg) was 3.51 ± 0.30 p<0.001 nM/l and the “Serum MDA, nM/l” value (mongrel female rats; 0.50 mg/kg) was 4.72 ± 0.57 p<0.01 nM/l. For the same substance, the “blasttranformation reaction of human lymphocytes induced by ConA” value (Human lymphocytes) was “stimulating effect”, the “Radioactivity, number of pulses for 20 seconds” value (from here on “Radioactivity, number of pulses”) (Human lymphocytes; 10^-3 M/l, +ConA) was 1072 ± 135 number of pulses for 20 seconds and the Stimulation index (Human lymphocytes; 10^-3 M/l, +ConA) was 3.01. The “Radioactivity, number of pulses” value (Human lymphocytes; 10^-3 M/l, no mitogen) was 356±51 number of pulses for 20 seconds, the “Radioactivity, number of pulses” value (Human lymphocytes; 10^-4 M/l, +ConA) was 1259 ± 90 number of pulses for 20 seconds and the Stimulation index (Human lymphocytes; 10^-4 M/l, +ConA) was 3.91. The “Radioactivity, number of pulses” value (Human lymphocytes; 10^-4 M/l, no mitogen) was 322 ± 38 number of pulses for 20 seconds, the “Radioactivity, number of pulses” value (Human lymphocytes; 10^-5 M/l, +ConA) was 1695 ± 139 number of pulses for 20 seconds and the Stimulation index (Human lymphocytes; 10^-5 M/l, +ConA) was 5.00. For the same substance, the “Radioactivity, number of pulses” value (Human lymphocytes; 10^-5 M/l, no mitogen) was 339 ± 32 number of pulses for 20 seconds, the “Radioactivity, number of pulses” value (Human lymphocytes; 10^-6 M/l, +ConA) was 1963 ± 205 number of pulses for 20 seconds and the Stimulation index (Human lymphocytes; 10^-6 M/l, +ConA) was 6.96. For the same substance, the “Radioactivity, number of pulses” value (Human lymphocytes; 10^-6 M/l, no mitogen) was 289 ± 52 number of pulses for 20 seconds, the “Radioactivity, number of pulses” value (Human lymphocytes; 10^-7 M/l, +ConA) was 1786 ± 241 number of pulses for 20 seconds and the Stimulation index (Human lymphocytes; 10^-7 M/l, +ConA) was 7.38. For the same substance, the “Radioactivity, number of pulses” value (Human lymphocytes; 10^-7 M/l, no mitogen) was 242 ± 19 number of pulses for 20 seconds, the “Radioactivity, number of pulses” value (Human lymphocytes; 10^-8 M/l, +ConA) was 971 ± 44 number of pulses for 20 seconds and the Stimulation index (Human lymphocytes; 10^-8 M/l, +ConA) was 4.17. For the same substance, the “Radioactivity, number of pulses” value (Human lymphocytes; 10^-8 M/l, no mitogen) was 233 ± 54 number of pulses for 20 seconds.
